Measured values as given in PubChem BioAssay AID1918934 (Molecular Pharmacology Branch, DTP, NCI, 2023).

Test system: 292921-168-R-J2-PDC complex spheroid viability
Assay: Anticancer human tumor 292921-168-R-J2-PDC patient-derived pancreatic carcinoma cell line growth inhibition
Conditions: for IC50: curve of first compound; for viability, T/C: stronger effect = lower value
From the text: Multicellular complex tumor spheroid response to LSD1 Inhibitor Iadademstat in combination with a variety of drugs and investigational agents in selected tumor cell lines
The current study was undertaken to assess response to LSD1 inhibitors in combination with standard-of-care drugs and investigational agents in solid tumor complex spheroid models as well as in the K-562 leukemia. Complex spheroids include a stromal component modeled by human endothelial cells (HUVEC) and fibroblasts modeled by human mesenchymal stem cells (MSCs). The concentration ranges selected for each drug and investigational agent were based upon clinically achievable concentrations if the clinical Cmax of the agent was known.
Compounds. The drugs and investigational agents used in this study are listed on Table 1. All of the agents used, including staurosporine (NSC755774) and gemcitabine (NSC613327), were obtained from the Developmental Therapeutics Program, NCI. FDA-approved anticancer drugs are available from the NCI at http://dtp.nci.nih.gov/branches/dscb/oncology_drugset_explanation.html. Drugs and investigational agents were >95% pure by proton nuclear magnetic resonance (NMR) and liquid chromatography/mass spectrometry (LC/MS). Stock solutions were prepared at 400x in DMSO, stored at -70 degrees C, and diluted in fresh medium prior to their use. The final concentration of DMSO in cell culture wells never exceeded 0.25% (v/v). The FDA-approved anticancer drug set is available from the Developmental Therapeutics Program at https://dtp.cancer.gov/organization/dscb/obtaining/available_plates.htm. All drugs and investigational agents were tested over a range starting from a high concentration at or near the clinical Cmax and decreasing in half-log increments. If the clinical Cmax for an agent had not been determined, the highest concentration tested was 10 microM.
Cell Lines. The patient-derived cancer cell (PDC) lines: 292921-168-R-J2-PDC, K24384-001-R-PDC, and 521955-158-R2-J5-PDC pancreatic carcinomas, 556581-035-R-J1 ovarian carcinoma, 324938-238-R-J1-PDC, 855422-203-R-J1-PDC and 883617-216-R-J1-PDC urothelial bladder carcinomas, 743489-274-T-PDC renal cell carcinoma, 138582-R-J1 Merkel cell tumor, K60290-347-R-J1 and K57222-313-R-J1-PDC glioblastomas, 653999-131-R-J2-PDC, LG0703-F948-PDC, and 349418-098-R-PDC non-small cell lung carcinomas, 885512-296-R-J2-PDC, 171881-019-R-J1-PDC breast carcinomas and 186277-243-T-J2-PDC and 233499-124-R-J2-PDC colon carcinomas were obtained from the NCI Patient-Derived Models Repository (PDMR, https://pdmr.cancer.gov). The established cell lines NCI/ADR-RES (RRID:CVCL_14520 and OVCAR-5 (RRID:CVCL_1628) ovarian carcinomas, 786-O (RRID:CVCL_1051) and A498 (RRID:CVCL_A498) renal cell carcinoma, NCI-H211 (ATCC, cat. CRL-5824; RRID:CVCL_1529), NCI-H196 (ATCC, cat. CRL-5823, RRID:CVCL_1509), SW 1271 (ATCC, cat. CRL-2177, RRID:CVCL_1716) and NCI-H1876 (ATCC, cat. CRL-5902, RRID:CVCL_1503) small cell lung carcinomas, MDA-MB-231 (RRID:CVCL_0062) and MDA-MB-468 (RRID:CVCL_0419)breast carcinomas (10-12). Pooled donor human umbilical vein endothelial cells (HUVEC, Lonza, cat. CC-2519) and human mesenchymal stem cells (hMSC, Lonza, cat. PT-2501) were purchased from Lonza (Walkersville, MD).
Cell Culture. All cells were maintained in an incubator at 37 degrees C and 5% CO2 with 95% humidity. The PDC lines were cultured according to standard operating procedures established by the NCI PDMR (https://pdmr.cancer.gov). Briefly all PDCs were thawed and cultured in Matrigel-coated flasks prepared with a working solution of 1X Ham's F-12 nutrient mix, without supplementation (Invitrogen, Waltham, MA, cat. 11765054), 100 U/mL penicillin-streptomycin (Invitrogen, cat. 15140122), and 2.5% Matrigel (Corning Inc., Corning, NY, cat. 354248) for the first three passages. […]

[1] = second compound 0.1 µM, first compound 0.00316 µM
[2] = second compound 0.1 µM, first compound 0.01 µM
[3] = second compound 0.1 µM, first compound 0.0316 µM
[4] = second compound 0.1 µM, first compound 0.1 µM
[5] = second compound 0.316 µM, first compound 0.00316 µM
[6] = second compound 0.316 µM, first compound 0.01 µM
[7] = second compound 0.316 µM, first compound 0.0316 µM
[8] = second compound 0.316 µM, first compound 0.1 µM
[9] = second compound 1 µM, first compound 0.00316 µM
[10] = second compound 1 µM, first compound 0.01 µM
[11] = second compound 1 µM, first compound 0.0316 µM
[12] = second compound 1 µM, first compound 0.1 µM
[13] = second compound 3.16 µM, first compound 0.00316 µM
[14] = second compound 3.16 µM, first compound 0.01 µM
[15] = second compound 3.16 µM, first compound 0.0316 µM
[16] = second compound 3.16 µM, first compound 0.1 µM
[17] = second compound 10 µM, first compound 0.00316 µM
[18] = second compound 10 µM, first compound 0.01 µM
[19] = second compound 10 µM, first compound 0.0316 µM
[20] = second compound 10 µM, first compound 0.1 µM
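Also: seven day compound exposure before luminescent viability read.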
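For viability, T/C in this document: 100% = DMSO vehicle control wells.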

SMILES: CC[C@@]1(O)C(=O)OCc2c1cc1n(c2=O)Cc2cc3c(CN(C)C)c(O)ccc3nc2-1 + NC1CC1c1ccc(-c2cccc(O)c2)cc1
- IC50 (second compound 0.1 µM): 3.22 nM
- IC50 (second compound 0.316 µM): 2.16 nM
- IC50 (second compound 1 µM): 1.63 nM
- IC50 (second compound 3.16 µM): 2.15 nM
- IC50 (second compound 10 µM): 0.375 nM
- viability, T/C (second compound 0.1 µM, first compound 0.000316 µM): 81.3%
- viability, T/C (second compound 0.1 µM, first compound 0.001 µM): 78.9%
- viability, T/C [1]: 48.2%
- viability, T/C [2]: 21.6%
- viability, T/C [3]: 8.58%
- viability, T/C [4]: 3.36%
- viability, T/C (second compound 0.316 µM, first compound 0.000316 µM): 72.8%
- viability, T/C (second compound 0.316 µM, first compound 0.001 µM): 65.3%
- viability, T/C [5]: 41.9%
- viability, T/C [6]: 21%
- viability, T/C [7]: 8.47%
- viability, T/C [8]: 3.37%
- viability, T/C (second compound 1 µM, first compound 0.000316 µM): 61.8%
- viability, T/C (second compound 1 µM, first compound 0.001 µM): 56.7%
- viability, T/C [9]: 41.1%
- viability, T/C [10]: 21.3%
- viability, T/C [11]: 8.54%
- viability, T/C [12]: 4.7%
- viability, T/C (second compound 3.16 µM, first compound 0.000316 µM): 66.4%
- viability, T/C (second compound 3.16 µM, first compound 0.001 µM): 61.9%
- viability, T/C [13]: 44.2%
- viability, T/C [14]: 17.8%
- viability, T/C [15]: 8.75%
- viability, T/C [16]: 3.88%
- viability, T/C (second compound 10 µM, first compound 0.000316 µM): 50.7%
- viability, T/C (second compound 10 µM, first compound 0.001 µM): 46.7%
- viability, T/C [17]: 37.4%
- viability, T/C [18]: 20.5%
- viability, T/C [19]: 9.34%
- viability, T/C [20]: 4.4%

SMILES: COc1cc(C2c3cc4c(cc3C(OC3OC5COC(C)OC5C(O)C3O)C3COC(=O)C23)OCO4)cc(OC)c1O (stereo not given) + NC1CC1c1ccc(-c2cccc(O)c2)cc1
- IC50 (second compound 0.1 µM): 42.7 nM
- IC50 (second compound 0.316 µM): 21.3 nM
- IC50 (second compound 1 µM): 21.4 nM
- IC50 (second compound 3.16 µM): 13.7 nM
- IC50 (second compound 10 µM): < 9.49 nM
- viability, T/C (second compound 0.1 µM, first compound 0.00949 µM): 84.3%
- viability, T/C (second compound 0.1 µM, first compound 0.03 µM): 58.9%
- viability, T/C (second compound 0.1 µM, first compound 0.0949 µM): 30.1%
- viability, T/C (second compound 0.1 µM, first compound 0.3 µM): 19.4%
- viability, T/C (second compound 0.1 µM, first compound 0.949 µM): 7.22%
- viability, T/C (second compound 0.1 µM, first compound 3 µM): 4.45%
- viability, T/C (second compound 0.316 µM, first compound 0.00949 µM): 64.8%
- viability, T/C (second compound 0.316 µM, first compound 0.03 µM): 44.4%
- viability, T/C (second compound 0.316 µM, first compound 0.0949 µM): 25.7%
- viability, T/C (second compound 0.316 µM, first compound 0.3 µM): 18.6%
- viability, T/C (second compound 0.316 µM, first compound 0.949 µM): 8.04%
- viability, T/C (second compound 0.316 µM, first compound 3 µM): 5.02%
- viability, T/C (second compound 1 µM, first compound 0.00949 µM): 64.7%
- viability, T/C (second compound 1 µM, first compound 0.03 µM): 43.3%
- viability, T/C (second compound 1 µM, first compound 0.0949 µM): 27.4%
- viability, T/C (second compound 1 µM, first compound 0.3 µM): 16.4%
- viability, T/C (second compound 1 µM, first compound 0.949 µM): 5.52%
- viability, T/C (second compound 1 µM, first compound 3 µM): 4.94%
- viability, T/C (second compound 3.16 µM, first compound 0.00949 µM): 54.8%
- viability, T/C (second compound 3.16 µM, first compound 0.03 µM): 39.9%
- viability, T/C (second compound 3.16 µM, first compound 0.0949 µM): 24.3%
- viability, T/C (second compound 3.16 µM, first compound 0.3 µM): 15.2%
- viability, T/C (second compound 3.16 µM, first compound 0.949 µM): 7.27%
- viability, T/C (second compound 3.16 µM, first compound 3 µM): 3.74%
- viability, T/C (second compound 10 µM, first compound 0.00949 µM): 44.7%
- viability, T/C (second compound 10 µM, first compound 0.03 µM): 27.4%
- viability, T/C (second compound 10 µM, first compound 0.0949 µM): 23%
- viability, T/C (second compound 10 µM, first compound 0.3 µM): 17.1%
- viability, T/C (second compound 10 µM, first compound 0.949 µM): 6.98%
- viability, T/C (second compound 10 µM, first compound 3 µM): 5.53%

SMILES: Nc1ncn(C2CC(O)C(CO)O2)c(=O)n1 (stereo not given) + NC1CC1c1ccc(-c2cccc(O)c2)cc1
- IC50 (second compound 0.1 µM): 646 nM
- IC50 (second compound 0.316 µM): 330 nM
- IC50 (second compound 1 µM): 104 nM
- IC50 (second compound 3.16 µM): 171 nM
- IC50 (second compound 10 µM): 90.8 nM
- viability, T/C [1]: 79.1%
- viability, T/C [2]: 76.2%
- viability, T/C [3]: 71.9%
- viability, T/C [4]: 66.9%
- viability, T/C (second compound 0.1 µM, first compound 0.316 µM): 55%
- viability, T/C (second compound 0.1 µM, first compound 1 µM): 46.5%
- viability, T/C [5]: 74.7%
- viability, T/C [6]: 75%
- viability, T/C [7]: 65.2%
- viability, T/C [8]: 60.4%
- viability, T/C (second compound 0.316 µM, first compound 0.316 µM): 49.6%
- viability, T/C (second compound 0.316 µM, first compound 1 µM): 44.4%
- viability, T/C [9]: 64.8%
- viability, T/C [10]: 52.3%
- viability, T/C [11]: 53.4%
- viability, T/C [12]: 53.2%
- viability, T/C (second compound 1 µM, first compound 0.316 µM): 48%
- viability, T/C (second compound 1 µM, first compound 1 µM): 39.1%
- viability, T/C [13]: 65.2%
- viability, T/C [14]: 63.5%
- viability, T/C [15]: 61.4%
- viability, T/C [16]: 54%
- viability, T/C (second compound 3.16 µM, first compound 0.316 µM): 45.2%
- viability, T/C (second compound 3.16 µM, first compound 1 µM): 38.4%
- viability, T/C [17]: 55%
- viability, T/C [18]: 56.3%
- viability, T/C [19]: 55.3%
- viability, T/C [20]: 47.2%
- viability, T/C (second compound 10 µM, first compound 0.316 µM): 45.4%
- viability, T/C (second compound 10 µM, first compound 1 µM): 39.8%
